Experiments:
μ-opioid receptor = μ-opioid receptor (Rattus norvegicus, UniProt P33535); settings: read-out: Ki in binding to the μ-opioid receptor; rat forebrain preparation, [3H]DAMGO, 25° C.
[1] = tested on: acetylcholine bromide-induced abdominal constriction response; experiment: Mouse Acetylcholine Bromide-Induced Abdominal Constriction Assay; format: in vivo; settings: p.o., 30 minutes before i.p. 5.5 mg/kg acetylcholine bromide, % inhibition of constriction response (% analgesia)
Description: C) Mouse Acetylcholine Bromide-Induced Abdominal Constriction Assay
The mouse acetylcholine-induced abdominal constiction assay, as described by Collier et al. in Brit. J. Pharmacol. Chem. Ther., 32: 295-310, 1968, with minor modifications was used to assess analgesic potency of the compounds of formula (I). The test drugs or appropriate vehicles were administered orally (p.o.) and 30 minutes later the animal received an intraperitoneal (i.p.) injection of 5.5 mg/kg acetylcholine bromide (Matheson, Coleman and Bell, East Rutherford, N.J.). The mice were then placed in groups of three into glass bell jars and observed for a ten minute observation period for the occurrence of an abdominal constriction response (defined as a wave of constriction and elongation passing caudally along the abdominal wall, accompanied by a twisting of the trunk and followed by extension of the hind limbs). The percent inhibition of this response to a nociceptive stimulus (equated to % analgesia) was calculated as follows: The % inhibition of response, i.e., % analgesia is equal to the difference between the No. of control animal responses and the No. of drug-treated animal responses times 100 divided by the No. of control animals responding.

opioid delta receptor = molecular target: T1, opioid delta receptor (Homo sapiens, UniProt P41143); format: binding
T1 construct: purchased Receptor Biology, Baltimore, Md; host or cells: CHO cells (recombinant, membranes)
T1 sequence (P41143 whole entry): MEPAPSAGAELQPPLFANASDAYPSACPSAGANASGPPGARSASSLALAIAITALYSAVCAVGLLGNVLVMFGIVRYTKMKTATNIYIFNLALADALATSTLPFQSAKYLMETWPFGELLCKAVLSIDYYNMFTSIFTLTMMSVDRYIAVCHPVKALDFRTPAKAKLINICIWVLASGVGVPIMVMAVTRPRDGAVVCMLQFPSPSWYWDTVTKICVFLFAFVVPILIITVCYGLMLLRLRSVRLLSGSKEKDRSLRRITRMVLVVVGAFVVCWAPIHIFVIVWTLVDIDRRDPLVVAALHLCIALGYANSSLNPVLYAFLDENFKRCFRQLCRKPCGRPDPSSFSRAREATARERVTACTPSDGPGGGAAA

δ-opioid receptor = molecular target: T2, δ-opioid receptor (Rattus norvegicus, UniProt P33533); settings: read-out: Ki in binding to the δ-opioid receptor
T2 construct: the forebrains are homogenized in Tris buffer in a Teflon®-glass homogenizer; from tissue; host or cells: forebrain of male Wistar rats, particulate (membrane) preparation
T2 sequence (P33533 whole entry): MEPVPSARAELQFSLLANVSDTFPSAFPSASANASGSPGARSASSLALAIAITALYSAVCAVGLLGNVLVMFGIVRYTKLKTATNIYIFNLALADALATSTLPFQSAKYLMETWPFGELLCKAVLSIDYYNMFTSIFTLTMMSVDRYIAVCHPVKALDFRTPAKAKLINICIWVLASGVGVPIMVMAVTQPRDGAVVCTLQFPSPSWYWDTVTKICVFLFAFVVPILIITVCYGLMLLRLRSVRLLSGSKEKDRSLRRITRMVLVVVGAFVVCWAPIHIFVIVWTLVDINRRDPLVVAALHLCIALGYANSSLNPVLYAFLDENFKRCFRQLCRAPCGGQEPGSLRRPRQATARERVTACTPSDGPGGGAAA

Chain of μ-opioid receptor (P33535 whole entry): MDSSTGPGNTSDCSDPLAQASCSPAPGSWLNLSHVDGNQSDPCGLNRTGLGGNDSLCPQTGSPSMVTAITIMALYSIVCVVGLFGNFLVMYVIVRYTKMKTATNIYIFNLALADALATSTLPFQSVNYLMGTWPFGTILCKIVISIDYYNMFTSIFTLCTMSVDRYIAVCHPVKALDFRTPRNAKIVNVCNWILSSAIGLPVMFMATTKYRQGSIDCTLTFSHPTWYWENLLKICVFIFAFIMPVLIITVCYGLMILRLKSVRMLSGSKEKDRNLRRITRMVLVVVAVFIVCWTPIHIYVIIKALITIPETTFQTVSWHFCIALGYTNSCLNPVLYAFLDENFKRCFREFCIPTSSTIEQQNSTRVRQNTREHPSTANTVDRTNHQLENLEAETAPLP

Q: Which results are given for CCCN1CCC(N(c2ccccc2)c2cccc(C(=O)N(C)c3ccccc3)c2)CC1.O=C(O)/C=C/C(=O)O [C4, N-Methyl-N-phenyl-3-[phenyl(1-propylpiperidin-4-yl)amino]benzamide Fumarate[1:1.4]]?
A: Ki (μ-opioid receptor): 153 nM; ED50 [1]: 4.2 µmol/kg; % I @ 25 μM (opioid delta receptor): 41%; Ki (δ-opioid receptor): 25 nM
